# Assay: Measurement of solubility in dilution solvent (PGMEA)
# Assay type: physicochemical
# Conditions: 0.5 g compound in PGMEA, stirred at 25° C. for 1 hour
# Procedure: 0.5 g of each compound Synthesis Examples 1 to 5 and Comparative Synthesis Examples 1 to 5 was added to a dilution solvent (PGMEA), and each corresponding solution was stirred with Mix-Rotar VMR-5 (Luchi Seieido Co., Ltd.) at 25° C. for 1 hour and then, evaluated with respect to solubility, and the results are shown in Table 2.
# Solubility Evaluation Criteria
# • 10 wt % or more of the compound (solute) was dissolved in the total amount of the diluent: ∘ • Less than 10 wt % of the compound (solute) was dissolved in the total amount of diluent: X
row,Compound,Solubility
1,"CCN(CCCCCCN(CC)c1ccc2c(-c3ccccc3S(=O)(=O)[O-])c3ccc(N(CN4C(=O)c5ccccc5C4=O)c4c(C)cccc4C)cc3[o+]c2c1)c1ccc2c(c1)OC1C=C(N(CN3C(=O)c4ccccc4C3=O)c3c(C)cccc3C)C=CC1=C2c1ccccc1S(=O)(=O)O (centres unmarked) [Comparative Synthesis Example 5, reference compound]",X (Less than 10 wt % of the compound (solute) was dissolved in the total amount of diluent)
2,Cc1cccc(C)c1N(CCCN1C(=O)c2ccccc2C1=O)C1=CC2Oc3cc(N(C)CCCN(C)c4ccc5c(-c6ccccc6S(=O)(=O)[O-])c6ccc(N(CCCN7C(=O)c8ccccc8C7=O)c7c(C)cccc7C)cc6[o+]c5c4)ccc3C(c3ccccc3S(=O)(=O)O)=C2C=C1 (centres unmarked) [Synthesis Example 5],◯
3,"Cc1cccc(C)c1N(CCCN1C(=O)c2ccccc2C1=O)C1=CC2Oc3cc(N(C)CCN(C)c4ccc5c(-c6ccccc6S(=O)(=O)[O-])c6ccc(N(CCCN7C(=O)c8ccccc8C7=O)c7c(C)cccc7C)cc6[o+]c5c4)ccc3C(c3ccccc3S(=O)(=O)O)=C2C=C1 (centres unmarked) [Comparative Synthesis Example 3, reference compound]",X (Less than 10 wt % of the compound (solute) was dissolved in the total amount of diluent)
4,"Cc1cccc(C)c1N(CCCN1C(=O)c2ccccc2C1=O)C1=CC2Oc3cc(N(C)CCCCCCCCCCCN(C)c4ccc5c(-c6ccccc6S(=O)(=O)[O-])c6ccc(N(CCCN7C(=O)c8ccccc8C7=O)c7c(C)cccc7C)cc6[o+]c5c4)ccc3C(c3ccccc3S(=O)(=O)O)=C2C=C1 (centres unmarked) [Comparative Synthesis Example 4, reference compound]",X (Less than 10 wt % of the compound (solute) was dissolved in the total amount of diluent)

# Now from value to molecule:
row,Solubility,Compound
1,◯,CCN(CCCCCCN(CC)c1ccc2c(-c3ccccc3S(=O)(=O)[O-])c3ccc(N(CCCN4C(=O)c5ccccc5C4=O)c4c(C)cccc4C)cc3[o+]c2c1)c1ccc2c(c1)OC1C=C(N(CCCN3C(=O)c4ccccc4C3=O)c3c(C)cccc3C)C=CC1=C2c1ccccc1S(=O)(=O)O (centres unmarked) [Synthesis Example 1]
2,◯,CCN(CCCCCCN(CC)c1ccc2c(-c3ccccc3S(=O)(=O)[O-])c3ccc(N(CCN4C(=O)c5ccccc5C4=O)c4c(C)cccc4C)cc3[o+]c2c1)c1ccc2c(c1)OC1C=C(N(CCN3C(=O)c4ccccc4C3=O)c3c(C)cccc3C)C=CC1=C2c1ccccc1S(=O)(=O)O (centres unmarked) [Synthesis Example 3]
3,◯,CCN(CCCCCCN(CC)c1ccc2c(-c3ccccc3S(=O)(=O)[O-])c3ccc(N(CCCN4C(=O)c5ccccc5C4=O)c4ccccc4C)cc3[o+]c2c1)c1ccc2c(c1)OC1C=C(N(CCCN3C(=O)c4ccccc4C3=O)c3ccccc3C)C=CC1=C2c1ccccc1S(=O)(=O)O (centres unmarked) [Synthesis Example 4]
4,◯,CCN(CCCCCCN(CC)c1ccc2c(-c3ccccc3S(=O)(=O)[O-])c3ccc(N(CCCCN4C(=O)c5ccccc5C4=O)c4c(C)cccc4C)cc3[o+]c2c1)c1ccc2c(c1)OC1C=C(N(CCCCN3C(=O)c4ccccc4C3=O)c3c(C)cccc3C)C=CC1=C2c1ccccc1S(=O)(=O)O (centres unmarked) [Synthesis Example 2]

# From patent US12674058B2, “Compound, photosensitive resin composition comprising same, photosensitive resin film, color filter and CMOS image sensor” (SAMSUNG SDI CO., LTD., priority 2021, dated 2026)
